{"source": "PubChem BioAssay AID1963968", "about": "(Molecular Pharmacology Branch, DTP, NCI, 2024);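 further: spheroids exposed to agents for 7 days before viability read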;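 on viability, T/C: 100% = DMSO vehicle control viability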", "system": "945468-187-T-J3-PDC spheroids with HUVEC/MSC, viability", "assay": "Anticancer human tumor 945468-187-T-J3-PDC patient-derived rectal carcinoma cell line growth inhibition [PI3K]", "conditions": "for IC50: curve of first compound; for viability, T/C: stronger effect = lower value", "method_in_brief": "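Three cell types, namely tumor cells, endothelial cells and mesenchymal stem cells, formed each spheroid. Combinations with four PI3K inhibitors were screened at clinically achievable concentrations decreasing by half-log, and spheroid viability was recorded.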", "key": {"[1]": {"conditions": "second compound 0.00316 µM, first compound 0.0316 µM"}, "[2]": {"conditions": "second compound 0.00316 µM, first compound 0.1 µM"}, "[3]": {"conditions": "second compound 0.00316 µM, first compound 0.316 µM"}, "[4]": {"conditions": "second compound 0.00316 µM, first compound 1 µM"}, "[5]": {"conditions": "second compound 0.00316 µM, first compound 3.16 µM"}, "[6]": {"conditions": "second compound 0.00316 µM, first compound 10 µM"}, "[7]": {"conditions": "second compound 0.01 µM, first compound 0.0316 µM"}, "[8]": {"conditions": "second compound 0.01 µM, first compound 0.1 µM"}, "[9]": {"conditions": "second compound 0.01 µM, first compound 0.316 µM"}, "[10]": {"conditions": "second compound 0.01 µM, first compound 1 µM"}, "[11]": {"conditions": "second compound 0.01 µM, first compound 3.16 µM"}, "[12]": {"conditions": "second compound 0.01 µM, first compound 10 µM"}, "[13]": {"conditions": "second compound 0.0316 µM, first compound 0.0316 µM"}, "[14]": {"conditions": "second compound 0.0316 µM, first compound 0.1 µM"}, "[15]": {"conditions": "second compound 0.0316 µM, first compound 0.316 µM"}, "[16]": {"conditions": "second compound 0.0316 µM, first compound 1 µM"}, "[17]": {"conditions": "second compound 0.0316 µM, first compound 3.16 µM"}, "[18]": {"conditions": "second compound 0.0316 µM, first compound 10 µM"}, "[19]": {"conditions": "second compound 0.1 µM, first compound 0.0316 µM"}, "[20]": {"conditions": "second compound 0.1 µM, first compound 0.1 µM"}, "[21]": {"conditions": "second compound 0.1 µM, first compound 0.316 µM"}, "[22]": {"conditions": "second compound 0.1 µM, first compound 1 µM"}, "[23]": {"conditions": "second compound 0.1 µM, first compound 3.16 µM"}, "[24]": {"conditions": "second compound 0.1 µM, first compound 10 µM"}, "[25]": {"conditions": "second compound 0.316 µM, first compound 0.0316 µM"}, "[26]": {"conditions": "second compound 0.316 µM, first compound 0.1 µM"}, "[27]": {"conditions": "second compound 0.316 µM, first compound 0.316 µM"}, "[28]": {"conditions": "second compound 0.316 µM, first compound 1 µM"}, "[29]": {"conditions": "second compound 0.316 µM, first compound 3.16 µM"}, "[30]": {"conditions": "second compound 0.316 µM, first compound 10 µM"}, "[31]": {"conditions": "second compound 1 µM, first compound 0.0316 µM"}, "[32]": {"conditions": "second compound 1 µM, first compound 0.1 µM"}, "[33]": {"conditions": "second compound 1 µM, first compound 0.316 µM"}, "[34]": {"conditions": "second compound 1 µM, first compound 1 µM"}, "[35]": {"conditions": "second compound 1 µM, first compound 3.16 µM"}, "[36]": {"conditions": "second compound 1 µM, first compound 10 µM"}}, "data": [{"smiles": "CC(Cn1ccc(-c2ccc(C#N)c(Cl)c2)n1)NC(=O)c1cc(C(C)O)[nH]n1", "note": "(centres undefined) + COc1c(OCCCN2CCOCC2)ccc2c3n(c(=NC(=O)c4cnc(N)nc4)nc12)CCN3", "values": [{"measurement": "IC50", "setting": "second compound 0.00316 µM", "value": "> 10", "unit": "µM"}, {"measurement": "IC50", "setting": "second compound 0.01 µM", "value": "> 10", "unit": "µM"}, {"measurement": "IC50", "setting": "second compound 0.0316 µM", "value": "> 10", "unit": "µM"}, {"measurement": "IC50", "setting": "second compound 0.1 µM", "value": "< 0.0316", "unit": "µM"}, {"measurement": "IC50", "setting": "second compound 0.316 µM", "value": "< 0.0316", "unit": "µM"}, {"measurement": "IC50", "setting": "second compound 1 µM", "value": "< 0.0316", "unit": "µM"}, {"measurement": "viability, T/C", "setting": "[1]", "value": 96.6, "unit": "%"}, {"measurement": "viability, T/C", "setting": "[2]", "value": 92.7, "unit": "%"}, {"measurement": "viability, T/C", "setting": "[3]", "value": 95.7, "unit": "%"}, {"measurement": "viability, T/C", "setting": "[4]", "value": 88.5, "unit": "%"}, {"measurement": "viability, T/C", "setting": "[5]", "value": 93.9, "unit": "%"}, {"measurement": "viability, T/C", "setting": "[6]", "value": 92.3, "unit": "%"}, {"measurement": "viability, T/C", "setting": "[7]", "value": 93, "unit": "%"}, {"measurement": "viability, T/C", "setting": "[8]", "value": 96.8, "unit": "%"}, {"measurement": "viability, T/C", "setting": "[9]", "value": 103, "unit": "%"}, {"measurement": "viability, T/C", "setting": "[10]", "value": 94.8, "unit": "%"}, {"measurement": "viability, T/C", "setting": "[11]", "value": 98.6, "unit": "%"}, {"measurement": "viability, T/C", "setting": "[12]", "value": 96.5, "unit": "%"}, {"measurement": "viability, T/C", "setting": "[13]", "value": 107, "unit": "%"}, {"measurement": "viability, T/C", "setting": "[14]", "value": 81, "unit": "%"}, {"measurement": "viability, T/C", "setting": "[15]", "value": 95.9, "unit": "%"}, {"measurement": "viability, T/C", "setting": "[16]", "value": 95.7, "unit": "%"}, {"measurement": "viability, T/C", "setting": "[17]", "value": 109, "unit": "%"}, {"measurement": "viability, T/C", "setting": "[18]", "value": 88.2, "unit": "%"}, {"measurement": "viability, T/C", "setting": "[19]", "value": 49.1, "unit": "%"}, {"measurement": "viability, T/C", "setting": "[20]", "value": 50, "unit": "%"}, {"measurement": "viability, T/C", "setting": "[21]", "value": 49.1, "unit": "%"}, {"measurement": "viability, T/C", "setting": "[22]", "value": 48.9, "unit": "%"}, {"measurement": "viability, T/C", "setting": "[23]", "value": 48.2, "unit": "%"}, {"measurement": "viability, T/C", "setting": "[24]", "value": 54.7, "unit": "%"}, {"measurement": "viability, T/C", "setting": "[25]", "value": 23.3, "unit": "%"}, {"measurement": "viability, T/C", "setting": "[26]", "value": 24.2, "unit": "%"}, {"measurement": "viability, T/C", "setting": "[27]", "value": 18.5, "unit": "%"}, {"measurement": "viability, T/C", "setting": "[28]", "value": 21.6, "unit": "%"}, {"measurement": "viability, T/C", "setting": "[29]", "value": 27.5, "unit": "%"}, {"measurement": "viability, T/C", "setting": "[30]", "value": 23.1, "unit": "%"}, {"measurement": "viability, T/C", "setting": "[31]", "value": 18.8, "unit": "%"}, {"measurement": "viability, T/C", "setting": "[32]", "value": 15.6, "unit": "%"}, {"measurement": "viability, T/C", "setting": "[33]", "value": 16.6, "unit": "%"}, {"measurement": "viability, T/C", "setting": "[34]", "value": 15.2, "unit": "%"}, {"measurement": "viability, T/C", "setting": "[35]", "value": 18.7, "unit": "%"}, {"measurement": "viability, T/C", "setting": "[36]", "value": 16.1, "unit": "%"}]}, {"smiles": "Cn1nccc1Nc1nccc(-c2ccn(C(CO)c3ccc(Cl)c(F)c3)c(=O)c2)n1", "note": "(centres undefined) + COc1c(OCCCN2CCOCC2)ccc2c3n(c(=NC(=O)c4cnc(N)nc4)nc12)CCN3", "values": [{"measurement": "IC50", "setting": "second compound 0.00316 µM", "value": "> 10", "unit": "µM"}, {"measurement": "IC50", "setting": "second compound 0.01 µM", "value": "> 10", "unit": "µM"}, {"measurement": "IC50", "setting": "second compound 0.0316 µM", "value": "> 10", "unit": "µM"}, {"measurement": "IC50", "setting": "second compound 0.1 µM", "value": "< 0.0316", "unit": "µM"}, {"measurement": "IC50", "setting": "second compound 0.316 µM", "value": "< 0.0316", "unit": "µM"}, {"measurement": "IC50", "setting": "second compound 1 µM", "value": "< 0.0316", "unit": "µM"}, {"measurement": "viability, T/C", "setting": "[1]", "value": 95.1, "unit": "%"}, {"measurement": "viability, T/C", "setting": "[2]", "value": 93, "unit": "%"}, {"measurement": "viability, T/C", "setting": "[3]", "value": 102, "unit": "%"}, {"measurement": "viability, T/C", "setting": "[4]", "value": 98.9, "unit": "%"}, {"measurement": "viability, T/C", "setting": "[5]", "value": 109, "unit": "%"}, {"measurement": "viability, T/C", "setting": "[6]", "value": 111, "unit": "%"}, {"measurement": "viability, T/C", "setting": "[7]", "value": 97.5, "unit": "%"}, {"measurement": "viability, T/C", "setting": "[8]", "value": 87.7, "unit": "%"}, {"measurement": "viability, T/C", "setting": "[9]", "value": 119, "unit": "%"}, {"measurement": "viability, T/C", "setting": "[10]", "value": 97.5, "unit": "%"}, {"measurement": "viability, T/C", "setting": "[11]", "value": 123, "unit": "%"}, {"measurement": "viability, T/C", "setting": "[12]", "value": 104, "unit": "%"}, {"measurement": "viability, T/C", "setting": "[13]", "value": 97.7, "unit": "%"}, {"measurement": "viability, T/C", "setting": "[14]", "value": 85, "unit": "%"}, {"measurement": "viability, T/C", "setting": "[15]", "value": 93.5, "unit": "%"}, {"measurement": "viability, T/C", "setting": "[16]", "value": 85.6, "unit": "%"}, {"measurement": "viability, T/C", "setting": "[17]", "value": 83.4, "unit": "%"}, {"measurement": "viability, T/C", "setting": "[18]", "value": 66, "unit": "%"}, {"measurement": "viability, T/C", "setting": "[19]", "value": 49.7, "unit": "%"}, {"measurement": "viability, T/C", "setting": "[20]", "value": 44.1, "unit": "%"}, {"measurement": "viability, T/C", "setting": "[21]", "value": 55.6, "unit": "%"}, {"measurement": "viability, T/C", "setting": "[22]", "value": 43.9, "unit": "%"}, {"measurement": "viability, T/C", "setting": "[23]", "value": 40.5, "unit": "%"}, {"measurement": "viability, T/C", "setting": "[24]", "value": 42.8, "unit": "%"}, {"measurement": "viability, T/C", "setting": "[25]", "value": 20.9, "unit": "%"}, {"measurement": "viability, T/C", "setting": "[26]", "value": 18.9, "unit": "%"}, {"measurement": "viability, T/C", "setting": "[27]", "value": 18.2, "unit": "%"}, {"measurement": "viability, T/C", "setting": "[28]", "value": 19.4, "unit": "%"}, {"measurement": "viability, T/C", "setting": "[29]", "value": 15.3, "unit": "%"}, {"measurement": "viability, T/C", "setting": "[30]", "value": 14.5, "unit": "%"}, {"measurement": "viability, T/C", "setting": "[31]", "value": 14.9, "unit": "%"}, {"measurement": "viability, T/C", "setting": "[32]", "value": 15.5, "unit": "%"}, {"measurement": "viability, T/C", "setting": "[33]", "value": 11.3, "unit": "%"}, {"measurement": "viability, T/C", "setting": "[34]", "value": 9.48, "unit": "%"}, {"measurement": "viability, T/C", "setting": "[35]", "value": 8.78, "unit": "%"}, {"measurement": "viability, T/C", "setting": "[36]", "value": 7.89, "unit": "%"}]}]}
